Measured values published in patent US4954487A, “Penetrating topical pharmaceutical compositions” (The Procter & Gamble Company, priority 1989, dated 1990).

Experiment: Solubility of envelope-disordering compounds in the diol compounds
Conditions: typical compositions

soluble in the diol compounds / same compositions up to: up to 50 % by weight
Compound: CCCCCCCCCCO [n-decanol]
